Results taken from paper PMC11233931, “Remodeling tumor‐associated macrophage for anti‐cancer effects by rational design of irreversible inhibition of mitogen‐activated protein kinase‐activated protein kinase 2” (MedComm, 2024).

Tests used:
Test in all cases: Eurofins kinase selectivity profile against 380 other human recombinant kinases (Table S2)
Format in all cases: biochemical
[1] = biological target: T1, 380 human recombinant protein kinases (Homo sapiens, UniProt P45984); details: JNK2α2(h), read-out: Inhibition rate
T1 construct: purchased Eurofins (Celle Lévescault)
T1 sequence (P45984 whole entry): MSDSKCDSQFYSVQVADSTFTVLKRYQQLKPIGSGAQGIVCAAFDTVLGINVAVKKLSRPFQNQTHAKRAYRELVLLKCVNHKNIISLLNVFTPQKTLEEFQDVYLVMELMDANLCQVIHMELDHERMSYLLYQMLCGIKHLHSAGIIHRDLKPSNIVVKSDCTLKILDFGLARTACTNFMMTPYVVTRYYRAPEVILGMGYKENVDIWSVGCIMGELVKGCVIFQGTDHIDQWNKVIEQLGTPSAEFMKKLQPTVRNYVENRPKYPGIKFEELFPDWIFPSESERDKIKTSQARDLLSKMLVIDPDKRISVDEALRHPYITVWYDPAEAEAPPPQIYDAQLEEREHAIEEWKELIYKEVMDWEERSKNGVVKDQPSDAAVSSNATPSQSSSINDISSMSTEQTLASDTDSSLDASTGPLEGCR
Summary of the method: (§1)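 To gauge specificity for MK2, the compound is profiled externally at various concentrations on recombinant human kinases, 380 in total.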

[2] = biological target: T2, 380 human recombinant protein kinases (Homo sapiens, UniProt P54646); details: AMPKα2(h), read-out: Inhibition rate
T2 construct: purchased Eurofins (Celle Lévescault)
T2 sequence (P54646 whole entry): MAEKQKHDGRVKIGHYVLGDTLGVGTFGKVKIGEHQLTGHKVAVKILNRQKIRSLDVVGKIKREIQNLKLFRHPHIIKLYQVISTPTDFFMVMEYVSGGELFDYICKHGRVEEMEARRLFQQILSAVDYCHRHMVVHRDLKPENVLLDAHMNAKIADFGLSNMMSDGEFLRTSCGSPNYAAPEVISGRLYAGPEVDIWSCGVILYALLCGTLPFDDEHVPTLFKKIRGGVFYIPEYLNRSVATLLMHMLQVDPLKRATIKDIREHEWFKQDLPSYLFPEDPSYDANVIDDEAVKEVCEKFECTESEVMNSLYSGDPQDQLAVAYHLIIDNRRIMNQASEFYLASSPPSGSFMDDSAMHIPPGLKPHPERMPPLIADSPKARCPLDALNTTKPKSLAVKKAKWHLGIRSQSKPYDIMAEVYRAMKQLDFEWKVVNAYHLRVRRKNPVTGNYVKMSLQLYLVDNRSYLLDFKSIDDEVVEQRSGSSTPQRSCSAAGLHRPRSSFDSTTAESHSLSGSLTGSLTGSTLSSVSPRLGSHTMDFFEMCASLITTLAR
Summary of the method: as §1

[3] = biological target: T3, 380 human recombinant protein kinases (Homo sapiens, UniProt Q5MAI5); details: CDKL4(h), read-out: Inhibition rate
T3 construct: purchased Eurofins (Celle Lévescault)
T3 sequence (Q5MAI5 whole entry): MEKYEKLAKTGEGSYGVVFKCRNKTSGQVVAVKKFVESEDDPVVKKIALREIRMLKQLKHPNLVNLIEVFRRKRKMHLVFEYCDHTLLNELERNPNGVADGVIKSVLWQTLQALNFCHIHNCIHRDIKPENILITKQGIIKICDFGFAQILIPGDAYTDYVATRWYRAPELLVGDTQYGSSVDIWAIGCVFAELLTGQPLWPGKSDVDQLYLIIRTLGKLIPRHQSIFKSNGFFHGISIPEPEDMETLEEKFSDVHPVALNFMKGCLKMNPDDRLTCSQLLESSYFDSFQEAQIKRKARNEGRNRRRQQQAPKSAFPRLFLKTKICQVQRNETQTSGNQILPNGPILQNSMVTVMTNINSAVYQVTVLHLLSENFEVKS
Summary of the method: as §1

[4] = biological target: T4, 380 human recombinant protein kinases (Homo sapiens, UniProt P27448); details: MARK3(h), read-out: Inhibition rate
T4 construct: purchased Eurofins (Celle Lévescault)
T4 sequence (P27448 whole entry): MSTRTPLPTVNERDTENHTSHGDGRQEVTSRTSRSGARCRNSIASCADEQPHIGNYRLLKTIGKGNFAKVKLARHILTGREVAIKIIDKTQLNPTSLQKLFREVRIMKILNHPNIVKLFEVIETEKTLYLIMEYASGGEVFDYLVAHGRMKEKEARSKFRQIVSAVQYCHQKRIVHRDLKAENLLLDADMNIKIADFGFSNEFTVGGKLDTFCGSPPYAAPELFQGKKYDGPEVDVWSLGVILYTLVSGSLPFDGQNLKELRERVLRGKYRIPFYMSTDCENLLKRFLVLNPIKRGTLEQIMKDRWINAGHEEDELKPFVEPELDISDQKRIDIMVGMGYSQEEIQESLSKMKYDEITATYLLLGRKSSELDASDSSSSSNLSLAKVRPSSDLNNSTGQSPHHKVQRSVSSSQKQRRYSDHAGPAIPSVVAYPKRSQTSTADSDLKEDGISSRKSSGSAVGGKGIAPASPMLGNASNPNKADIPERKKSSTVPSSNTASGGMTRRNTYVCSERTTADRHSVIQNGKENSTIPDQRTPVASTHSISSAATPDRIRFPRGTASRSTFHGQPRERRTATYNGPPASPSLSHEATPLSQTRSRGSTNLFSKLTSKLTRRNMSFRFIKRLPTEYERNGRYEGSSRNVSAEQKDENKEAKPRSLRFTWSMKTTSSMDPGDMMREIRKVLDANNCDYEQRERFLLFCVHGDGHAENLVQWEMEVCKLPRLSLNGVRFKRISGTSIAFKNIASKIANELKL
Summary of the method: as §1

[5] = biological target: T5, 380 human recombinant protein kinases (Homo sapiens, UniProt O60331); details: PIP5K1γ(h), read-out: Inhibition rate (%)
T5 construct: purchased Eurofins (Celle Lévescault)
T5 sequence (O60331 whole entry): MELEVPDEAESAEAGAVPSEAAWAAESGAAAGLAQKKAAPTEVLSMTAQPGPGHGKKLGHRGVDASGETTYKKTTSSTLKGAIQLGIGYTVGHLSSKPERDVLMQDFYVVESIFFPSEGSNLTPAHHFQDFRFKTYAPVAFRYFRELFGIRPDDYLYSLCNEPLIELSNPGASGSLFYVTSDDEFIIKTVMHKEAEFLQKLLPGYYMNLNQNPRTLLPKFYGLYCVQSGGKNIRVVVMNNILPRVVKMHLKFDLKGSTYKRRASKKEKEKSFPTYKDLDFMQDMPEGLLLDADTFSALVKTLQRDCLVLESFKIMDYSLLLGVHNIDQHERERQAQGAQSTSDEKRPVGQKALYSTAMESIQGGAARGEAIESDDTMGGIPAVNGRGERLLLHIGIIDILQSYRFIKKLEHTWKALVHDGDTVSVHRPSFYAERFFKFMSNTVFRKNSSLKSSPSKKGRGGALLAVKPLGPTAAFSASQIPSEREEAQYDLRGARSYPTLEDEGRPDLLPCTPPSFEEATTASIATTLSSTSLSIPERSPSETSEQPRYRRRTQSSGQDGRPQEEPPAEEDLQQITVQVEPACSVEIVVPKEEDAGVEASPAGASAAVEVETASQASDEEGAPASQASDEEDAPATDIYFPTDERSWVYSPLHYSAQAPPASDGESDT
Summary of the method: as §1

[6] = biological target: T6, 380 human recombinant protein kinases (Homo sapiens, UniProt Q9Y4K4); details: MAP4K5(h), read-out: Inhibition rate
T6 construct: purchased Eurofins (Celle Lévescault)
T6 sequence (Q9Y4K4 whole entry): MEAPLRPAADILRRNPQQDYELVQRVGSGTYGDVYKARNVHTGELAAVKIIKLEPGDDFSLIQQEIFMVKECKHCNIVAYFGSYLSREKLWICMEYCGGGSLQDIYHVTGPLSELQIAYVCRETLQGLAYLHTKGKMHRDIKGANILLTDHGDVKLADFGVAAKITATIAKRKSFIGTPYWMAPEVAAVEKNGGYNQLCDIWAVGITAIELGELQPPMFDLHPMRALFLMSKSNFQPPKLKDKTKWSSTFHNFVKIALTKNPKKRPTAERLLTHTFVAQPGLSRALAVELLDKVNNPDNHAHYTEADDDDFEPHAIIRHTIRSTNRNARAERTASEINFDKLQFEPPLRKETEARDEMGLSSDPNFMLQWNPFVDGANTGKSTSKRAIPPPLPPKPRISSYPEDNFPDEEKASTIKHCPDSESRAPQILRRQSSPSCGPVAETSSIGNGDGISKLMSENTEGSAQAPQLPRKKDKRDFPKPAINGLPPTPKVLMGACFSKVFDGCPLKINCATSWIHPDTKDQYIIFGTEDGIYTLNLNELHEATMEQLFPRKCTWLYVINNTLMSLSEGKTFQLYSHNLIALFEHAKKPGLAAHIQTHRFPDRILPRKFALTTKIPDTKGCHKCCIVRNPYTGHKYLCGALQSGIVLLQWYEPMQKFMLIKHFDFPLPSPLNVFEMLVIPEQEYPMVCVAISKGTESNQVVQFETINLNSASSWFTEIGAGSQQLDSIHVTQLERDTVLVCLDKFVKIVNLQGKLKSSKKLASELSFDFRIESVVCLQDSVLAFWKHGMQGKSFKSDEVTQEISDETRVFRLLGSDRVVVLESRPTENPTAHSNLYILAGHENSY
Summary of the method: as §1

[7] = biological target: T7, 380 human recombinant protein kinases (Homo sapiens, UniProt Q9HAZ1); details: CLK4(h), read-out: Inhibition rate
T7 construct: purchased Eurofins (Celle Lévescault)
Summary of the method: as §1

[8] = biological target: T8, 380 human recombinant protein kinases (Homo sapiens, UniProt P30530); details: Axl(h), read-out: Inhibition rate
T8 construct: purchased Eurofins (Celle Lévescault)
T8 sequence (P30530 26-894): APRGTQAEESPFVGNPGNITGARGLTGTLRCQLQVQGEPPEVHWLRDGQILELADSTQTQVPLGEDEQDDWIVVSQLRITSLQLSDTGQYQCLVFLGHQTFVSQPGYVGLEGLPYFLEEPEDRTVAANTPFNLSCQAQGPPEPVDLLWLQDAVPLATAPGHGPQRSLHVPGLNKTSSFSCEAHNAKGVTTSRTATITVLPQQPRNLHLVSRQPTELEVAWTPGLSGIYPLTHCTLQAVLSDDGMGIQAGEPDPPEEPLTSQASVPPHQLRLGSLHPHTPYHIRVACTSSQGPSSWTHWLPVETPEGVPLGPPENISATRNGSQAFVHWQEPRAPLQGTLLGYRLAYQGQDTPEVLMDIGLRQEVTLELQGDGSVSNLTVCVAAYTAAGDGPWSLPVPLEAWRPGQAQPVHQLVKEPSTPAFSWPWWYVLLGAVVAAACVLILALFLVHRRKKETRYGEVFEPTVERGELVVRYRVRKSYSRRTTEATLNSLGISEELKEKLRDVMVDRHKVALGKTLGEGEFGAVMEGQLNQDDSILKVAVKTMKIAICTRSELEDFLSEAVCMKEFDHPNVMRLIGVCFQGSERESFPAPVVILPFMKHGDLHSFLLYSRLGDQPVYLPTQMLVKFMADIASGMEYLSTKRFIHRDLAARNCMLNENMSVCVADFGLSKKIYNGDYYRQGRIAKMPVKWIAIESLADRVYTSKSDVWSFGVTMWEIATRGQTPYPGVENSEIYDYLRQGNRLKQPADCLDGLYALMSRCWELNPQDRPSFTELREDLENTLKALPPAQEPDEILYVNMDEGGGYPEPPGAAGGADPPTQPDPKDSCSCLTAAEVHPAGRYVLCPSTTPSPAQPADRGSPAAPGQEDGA
Summary of the method: as §1

[9] = biological target: T9, 380 human recombinant protein kinases (Homo sapiens, UniProt Q9UBE8); details: NLK(h), read-out: Inhibition rate
T9 construct: purchased Eurofins (Celle Lévescault)
T9 sequence (Q9UBE8 1-527): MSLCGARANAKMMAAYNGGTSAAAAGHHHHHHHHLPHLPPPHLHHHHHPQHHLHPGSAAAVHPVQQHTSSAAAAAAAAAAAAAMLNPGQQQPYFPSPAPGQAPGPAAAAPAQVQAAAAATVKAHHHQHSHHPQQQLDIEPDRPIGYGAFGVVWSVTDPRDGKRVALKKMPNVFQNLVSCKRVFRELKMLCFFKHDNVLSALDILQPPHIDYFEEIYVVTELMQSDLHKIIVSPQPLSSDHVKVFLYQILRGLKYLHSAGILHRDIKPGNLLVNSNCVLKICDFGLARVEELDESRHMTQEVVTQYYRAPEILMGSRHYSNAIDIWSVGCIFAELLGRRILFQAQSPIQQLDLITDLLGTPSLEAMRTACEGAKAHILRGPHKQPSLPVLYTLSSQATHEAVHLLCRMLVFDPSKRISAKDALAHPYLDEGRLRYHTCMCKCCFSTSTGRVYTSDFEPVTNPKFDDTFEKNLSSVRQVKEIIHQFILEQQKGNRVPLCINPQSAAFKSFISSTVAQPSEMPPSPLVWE
Summary of the method: as §1

[10] = biological target: T10, 380 human recombinant protein kinases (Homo sapiens, UniProt P35968); details: KDR(h), read-out: Inhibition rate
T10 construct: purchased Eurofins (Celle Lévescault)
T10 sequence (P35968 20-1356): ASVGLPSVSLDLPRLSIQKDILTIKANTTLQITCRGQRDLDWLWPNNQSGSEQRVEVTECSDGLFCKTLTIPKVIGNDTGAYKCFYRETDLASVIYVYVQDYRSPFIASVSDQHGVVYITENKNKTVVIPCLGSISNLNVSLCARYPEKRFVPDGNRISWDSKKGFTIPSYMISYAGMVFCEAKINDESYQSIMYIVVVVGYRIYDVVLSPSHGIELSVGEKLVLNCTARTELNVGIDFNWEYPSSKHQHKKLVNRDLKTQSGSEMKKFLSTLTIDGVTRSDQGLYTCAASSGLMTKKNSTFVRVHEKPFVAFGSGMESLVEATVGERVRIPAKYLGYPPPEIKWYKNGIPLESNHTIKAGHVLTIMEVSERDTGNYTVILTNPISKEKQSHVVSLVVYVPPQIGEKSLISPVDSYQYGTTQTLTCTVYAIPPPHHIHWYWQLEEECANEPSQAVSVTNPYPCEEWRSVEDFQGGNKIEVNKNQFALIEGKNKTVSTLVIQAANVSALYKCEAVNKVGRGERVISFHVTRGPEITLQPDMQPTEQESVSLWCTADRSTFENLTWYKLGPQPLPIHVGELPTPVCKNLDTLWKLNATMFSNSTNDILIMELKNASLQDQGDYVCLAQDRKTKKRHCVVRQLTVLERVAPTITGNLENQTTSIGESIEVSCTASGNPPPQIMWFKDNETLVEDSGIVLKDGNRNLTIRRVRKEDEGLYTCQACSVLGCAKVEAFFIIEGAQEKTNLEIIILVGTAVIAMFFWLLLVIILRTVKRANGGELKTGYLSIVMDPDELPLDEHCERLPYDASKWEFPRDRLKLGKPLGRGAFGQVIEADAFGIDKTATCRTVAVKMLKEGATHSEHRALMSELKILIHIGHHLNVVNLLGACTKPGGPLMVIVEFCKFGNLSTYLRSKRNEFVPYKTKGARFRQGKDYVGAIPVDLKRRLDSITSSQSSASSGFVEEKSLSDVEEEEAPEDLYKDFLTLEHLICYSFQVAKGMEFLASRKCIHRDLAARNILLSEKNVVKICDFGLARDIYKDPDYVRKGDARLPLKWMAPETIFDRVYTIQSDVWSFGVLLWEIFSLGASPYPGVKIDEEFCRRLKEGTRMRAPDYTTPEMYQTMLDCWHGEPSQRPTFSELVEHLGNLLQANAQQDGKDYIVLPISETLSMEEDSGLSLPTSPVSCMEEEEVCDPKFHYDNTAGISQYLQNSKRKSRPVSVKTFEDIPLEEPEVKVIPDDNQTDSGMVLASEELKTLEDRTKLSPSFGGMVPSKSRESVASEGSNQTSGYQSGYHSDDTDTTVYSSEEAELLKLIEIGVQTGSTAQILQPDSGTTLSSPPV
Summary of the method: as §1

[11] = biological target: T11, 380 human recombinant protein kinases (Homo sapiens, UniProt P00519, Q252H); details: Abl (Q252H) (h), read-out: Inhibition rate
T11 construct: purchased Eurofins (Celle Lévescault)
Summary of the method: as §1

Question: With C=CC(=O)Nc1cc(-c2cc(-c3cc4c([nH]3)CCNC4=O)ccn2)ccc1OC(F)(F)F [compound 11] as the compound, how does the inhibition at 0.01 µM ([1]; 10 nM) read?
Answer: -6%

Question: What about the inhibition at 0.1 µM ([1]; 100 nM) of the same compound?
Answer: 5%

Question: What about the inhibition at 1 µM ([1]; 1000 nM) of the same compound?
Answer: 23%

Question: What about the inhibition at 0.01 µM ([2]; 10 nM) of the same compound?
Answer: 3%

Question: And the inhibition at 0.1 µM ([2]; 100 nM)?
Answer: 11%

Question: What about the inhibition at 1 µM ([2]; 1000 nM) of the same compound?
Answer: 43%

Question: And the inhibition at 0.01 µM ([3]; 10 nM)?
Answer: 50%

Question: What about the inhibition at 0.1 µM ([3]; 100 nM) of the same compound?
Answer: 83%

Question: And the inhibition at 1 µM ([3]; 1000 nM)?
Answer: 93%

Question: And the inhibition at 0.01 µM ([4]; 10 nM)?
Answer: 2%

Question: What about the inhibition at 0.1 µM ([4]; 100 nM) of the same compound?
Answer: -4%

Question: And the inhibition at 1 µM ([4]; 1000 nM)?
Answer: 5%

Question: What about the inhibition at 0.01 µM ([5]; 10 nM) of the same compound?
Answer: 0%

Question: What about the inhibition at 0.1 µM ([5]; 100 nM) of the same compound?
Answer: -1%

Question: And the inhibition at 1 µM ([5]; 1000 nM)?
Answer: 3%

Question: And the inhibition at 0.01 µM ([6]; 10 nM)?
Answer: -7%

Question: What about the inhibition at 0.1 µM ([6]; 100 nM) of the same compound?
Answer: -5%

Question: And the inhibition at 1 µM ([6]; 1000 nM)?
Answer: 12%

Question: And the inhibition at 0.01 µM ([7]; 10 nM)?
Answer: -6%

Question: What about the inhibition at 0.1 µM ([7]; 100 nM) of the same compound?
Answer: 25%

Question: And the inhibition at 1 µM ([7]; 1000 nM)?
Answer: 76%

Question: What about the inhibition at 0.01 µM ([8]; 10 nM) of the same compound?
Answer: -21%

Question: And the inhibition at 0.1 µM ([8]; 100 nM)?
Answer: -6%

Question: What about the inhibition at 1 µM ([8]; 1000 nM) of the same compound?
Answer: 26%

Question: What about the inhibition at 0.01 µM ([9]; 10 nM) of the same compound?
Answer: 6%

Question: What about the inhibition at 0.1 µM ([9]; 100 nM) of the same compound?
Answer: 16%

Question: And the inhibition at 1 µM ([9]; 1000 nM)?
Answer: 42%

Question: And the inhibition at 0.01 µM ([10]; 10 nM)?
Answer: 4%

Question: What about the inhibition at 0.1 µM ([10]; 100 nM) of the same compound?
Answer: 5%

Question: What about the inhibition at 1 µM ([10]; 1000 nM) of the same compound?
Answer: 31%

Question: And the inhibition at 0.01 µM ([11]; 10 nM)?
Answer: -6%

Question: What about the inhibition at 0.1 µM ([11]; 100 nM) of the same compound?
Answer: 5%

Question: And the inhibition at 1 µM ([11]; 1000 nM)?
Answer: 27%
